Test results as given in patent US5281603A, “Angiotensin II receptor blocking 2,3,6 substituted quinazolinones” (American Cyanamid Company, priority 1993, dated 1994).

Molecular target: T1, Angiotensin II Receptor (Bos taurus, UniProt P25104)
T1 construct: The brownish tissue forming the adrenal cortex is scraped off and finely minced with scissors before homogenization; from tissue; host or cells: beef adrenal cortex, microsomal membranes (100,000×g pellet)
T1 sequence (P25104 1-359): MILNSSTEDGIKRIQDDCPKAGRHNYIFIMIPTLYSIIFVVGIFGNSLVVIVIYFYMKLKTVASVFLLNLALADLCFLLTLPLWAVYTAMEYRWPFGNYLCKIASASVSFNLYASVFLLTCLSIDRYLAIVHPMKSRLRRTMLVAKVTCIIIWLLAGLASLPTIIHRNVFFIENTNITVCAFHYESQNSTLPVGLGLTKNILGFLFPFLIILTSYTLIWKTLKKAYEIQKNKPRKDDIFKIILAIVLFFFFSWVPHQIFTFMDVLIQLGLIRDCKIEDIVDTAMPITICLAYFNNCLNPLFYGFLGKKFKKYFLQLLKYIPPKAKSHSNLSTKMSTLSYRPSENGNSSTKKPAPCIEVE
Test: Angiotensin II Receptor Binding: displacement of [^125 I](Sar^1,Ile^8)AngII from beef adrenal cortex membranes
Design: species or system beef (bovine)
Settings: radioligand; non-specific binding with 1.0 uM unlabeled (Sar^1,Ile^8)AngII
Description: Beef adrenals are obtained from a local slaughter house (Maxwell-Cohen). [^125 I](Sar^1,Ile^8)AngII, S.A. 2200 Ci/mmole, is purchased from Dupont (NEN®, Boston, Mass.). All unlabeled AngII analogs, Dimethylsulfoxide (DMSO), nucleotides, bovine serum albumin (BSA) are purchased from Sigma Chemical Co., St. Louis, Mo. U.S.A.
Approximately sixteen (16) to twenty (20) beef adrenal glands are processed as follows: fresh adrenal glands received on crushed ice are cleaned of fatty tissues and the tough membranes encapsulating the glands are removed and discarded. The brownish tissue forming the adrenal cortex is scraped off and finely minced with scissors before homogenization. Care is taken to avoid contamination with medullary tissue during dissection. The scraped cortices are suspended in twenty volumes of an ice-cold buffer medium consisting of 10 mM Tris.HCl (pH 7.4 at 22° C.) and containing 1.0 mM EDTA and 0.2M sucrose. Unless otherwise indicated, all subsequent operations are done at 4° C. […] The homogenate is centrifuged first at low speed (3,000×g) for 10 min. […] This P2 pellet is discarded and the liquid phase is carefully decanted off in clean centrifuge tubes and recentrifuged at high speed (100,000×g) for 60 min. The translucent final pellet is harvested and combined in a small volume (20-50.0 ml) of 50.0 mM Tris.HCl buffer, pH 7.2. […] The pelleted membrane is reconstituted in 50.0 mM Tris.HCl buffer containing 0.1 mM of phenylmethylsulfonyl fluoride (PMSF) to give approximately a protein concentration of 2.5 mg per ml of tissue suspension. The membrane preparation is finally aliquoted in 1.0 ml volumes and stored at -70° C. until use in the binding assays. […]
The wells are left undisturbed for 60 min. at room temperature. […] The filters are removed from the filter grid and counted in a Parkard® Cobra Gamma Counter for 1 min. […] The binding data are analyzed by the non-linear interactive "LUNDON-1" program (LUNDON SOFTWARE Inc., Cleveland, Ohio U.S.A.).

## [^125 I](Sar^1,Ile^8)AngII [reference compound]
  Specific binding: greater than 90%
